From patent US8222202B2 (priority 2006, dated 2012)
Read-outs that look alike come from different tables or passages of the source. Starred links: 1 amine or outer side, 2 acyl side, 3 side chain; linkers in the order of their positions; H or OH if unused. Positions of bridges follow the written chain, without caps; N, C: chain ends. Non-standard residues stand in square brackets, D forms with d. Residues, ends and D or L forms follow the SMILES beside them. *: point of attachment. X3 = CC(C)CCNCCC[C@H](N[*:1])C(=O)[*:2]; Ala(2-furyl) = N[C@@H](Cc1ccco1)C(=O)O; Orn(iPr) = CC(C)NCCC[C@H](N)C(=O)O; 4Pal = N[C@@H](Cc1ccncc1)C(=O)O; Orn(Pr) = CCCNCCC[C@H](N)C(=O)O; 2Thi = N[C@@H](Cc1cccs1)C(=O)O; Aad = N[C@@H](CCCC(=O)O)C(=O)O; Orn = NCCC[C@H](N)C(=O)O; Dab = NCC[C@H](N)C(=O)O; NHCH2CH2OH = OCCN*; NHiBu = CC(C)CN*; NHOH = ON*

Legend:
hV1a receptor = molecular target: T1, hV1a receptor (Homo sapiens, UniProt P37288); experiment: hV1a receptor transcriptional reporter (luciferase) agonist assay; format: cell-based
T1 construct: expressed in transfected cells; host or cells: HEK-293
T1 sequence (P37288 whole entry): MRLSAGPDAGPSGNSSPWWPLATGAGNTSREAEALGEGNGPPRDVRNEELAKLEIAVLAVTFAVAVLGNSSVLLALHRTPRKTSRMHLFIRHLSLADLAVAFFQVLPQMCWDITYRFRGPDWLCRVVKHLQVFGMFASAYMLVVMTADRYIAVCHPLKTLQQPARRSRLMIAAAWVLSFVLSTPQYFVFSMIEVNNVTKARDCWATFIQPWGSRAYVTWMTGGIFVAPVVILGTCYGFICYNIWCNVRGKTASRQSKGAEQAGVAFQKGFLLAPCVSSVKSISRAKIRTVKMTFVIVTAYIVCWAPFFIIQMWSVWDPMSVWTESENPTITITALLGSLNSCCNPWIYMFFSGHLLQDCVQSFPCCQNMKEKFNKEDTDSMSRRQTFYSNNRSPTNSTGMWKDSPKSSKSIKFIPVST
Description: (§1) Agonist activity of compounds on the hV1a receptor was determined in a transcriptional reporter assay by transiently transfecting a hV1a receptor expression DNA into HEK-293 cells in concert with a reporter DNA containing intracellular calcium responsive promoter elements regulating expression of firefly luciferase. See Boss, V., Talpade, D. J., Murphy, T. J. J. Biol. Chem. 1996, May 3; 271(18), 10429-10432 for further guidance on this assay. […] To determine selectivity, compounds were tested in luciferase-based transcriptional reporter assays expressing the human oxytocin (hOT) receptor. Assays for other receptors (hV2, hV1b, rat V1a and rat V2) were also conducted.
(§2) The EC50 value given is the geometric mean expressed in nanomol/L (nM). Selectivity values are given as EC50 ratios.

[1] = tested on: anaesthetised Sprague-Dawley male rats; experiment: in vivo duration of action, blood pressure test in anaesthetised rats; set-up: species or system rat; details: ratio of decay rate of diastolic blood pressure response, AVP 0.1 nmol/kg i.v. to equieffective dose of compound; dibenamine-pretreated rats
Description: Blood pressure tests were carried out on anaesthetised Sprague-Dawley male rats (weighing 270-300 g) with catheterised jugular vein and carotid artery. The catheterised carotid artery was used to continuously monitor blood pressure and the jugular vein was used for administration of the compounds tested. Rats received intravenous injections of dibenamine prior to dosing to enhance their responsiveness to V1a receptor agonists (cf. Dekanski, J., Br. J. Pharmacol. 1952, 7, 567-572). […] Dosing intervals were set as time for the blood pressure to decrease to a stable baseline.
Determination of duration of action was based on the decay rate of diastolic arterial blood pressure transient increase. Specifically, for an exponential decay of plasma concentration, it can be shown that, if the response is measured beyond the distribution phase, the rate of decay near the EC50 is linear and inversely proportional to the elimination half-life (Rowland, M. and Tozer, T. in “Clinical Pharmacokinetics, Concepts and Applications”, 3rd ed., Lippincott Williams & Wilkins, Philadelphia, 1995).

[2] = molecular target: T2, human oxytocin (hOT) receptor (Homo sapiens, UniProt P30559); experiment: luciferase-based transcriptional reporter assay, selectivity hOT versus hV1a; format: cell-based
T2 construct: expressed in transfected cells
T2 sequence (P30559 1-389): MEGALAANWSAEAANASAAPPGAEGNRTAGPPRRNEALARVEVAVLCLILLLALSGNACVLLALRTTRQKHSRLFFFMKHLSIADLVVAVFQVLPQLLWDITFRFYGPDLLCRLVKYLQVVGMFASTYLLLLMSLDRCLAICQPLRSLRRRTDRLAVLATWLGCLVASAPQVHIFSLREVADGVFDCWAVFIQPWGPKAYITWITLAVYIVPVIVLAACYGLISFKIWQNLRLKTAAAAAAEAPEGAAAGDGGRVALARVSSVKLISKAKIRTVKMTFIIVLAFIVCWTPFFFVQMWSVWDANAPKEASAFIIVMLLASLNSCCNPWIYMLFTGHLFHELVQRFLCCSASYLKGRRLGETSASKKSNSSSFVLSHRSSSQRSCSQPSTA
Description: as §1, §2

[3] = HEK-293 cells transiently transfected with hV1a receptor, 5 hours exposure, geometric mean, read-out: EC50 hV1a receptor
[4] = class symbol, agonist efficacy at hOT receptor compared to AVP

EC50 (hV1a receptor; [3]) [nM] | Molecule | in vivo duration relative to AVP [1] | selectivity hOT/hV1a [2, 4] | further results
2.24 | CC[C@H](C)[C@@H]1NC(=O)[C@H](Cc2ccco2)NC(=O)[C@@H](N)CSSC[C@@H](C(=O)N2CCC[C@H]2C(=O)N[C@@H](CCN)C(=O)NCC(N)=O)NC(=O)[C@H](CC(N)=O)NC(=O)[C@H](CCC(N)=O)NC1=O [Compound 26] (H-C[Ala(2-furyl)]IQNCP[Dab]G-NH2; disulfide 1-6; N-terminus and C-terminus assumed) | 2.0 | – | selectivity hOT/hV1a ([2]; EC50 ratio): 28
– | CCNC(=O)C[C@@H]1NC(=O)[C@H]([C@@H](C)CC)NC(=O)[C@H](Cc2ccccc2)NC(=O)[C@@H](N)CSSC[C@@H](C(=O)N2CCC[C@H]2C(=O)N[C@@H](CCN)C(=O)NCC(N)=O)NC(=O)[C@H](CC(N)=O)NC1=O [Compound 4, [Phe^2,Asn(Et)^4, Dbu^8]VT] (H-CFID(NHEt)NCP[Dab]G-NH2; disulfide 1-6; N-terminus and C-terminus assumed) | 1.8 | + (selective hV1a receptor agonist; EC50 hOT/hV1a ratio not determined due to very low agonist efficacy (<30% compared to AVP) at the hOT receptor) | –
1.52 | CCCNCCC[C@H](NC(=O)[C@@H]1CCCN1C(=O)[C@@H]1CSSC[C@H](N)C(=O)N[C@@H](Cc2ccccc2)C(=O)N[C@@H]([C@@H](C)CC)C(=O)N[C@@H](CC(N)=O)C(=O)N[C@@H](CC(N)=O)C(=O)N1)C(=O)NCC(N)=O [Compound 50] (H-CFINNCP[Orn(Pr)]G-NH2; disulfide 1-6; N-terminus and C-terminus assumed) | 2.4 | – | selectivity hOT/hV1a ([2]; EC50 ratio): 43
– | CC[C@H](C)[C@@H]1NC(=O)[C@H](Cc2ccco2)NC(=O)[C@@H](N)CSSC[C@@H](C(=O)N2CCC[C@H]2C(=O)N[C@@H](CCCN)C(=O)NCC(N)=O)NC(=O)[C@H](CC(N)=O)NC(=O)[C@H](CCC(N)=O)NC1=O [Compound 32] (H-C[Ala(2-furyl)]IQNCP[Orn]G-NH2; disulfide 1-6) | 2.1 | – | –
– | CC[C@H](C)[C@@H]1NC(=O)[C@H](Cc2ccccc2)NC(=O)[C@@H](N)CSSC[C@@H](C(=O)N2CCC[C@H]2C(=O)N[C@@H](CCCNC(C)C)C(=O)NCC(N)=O)NC(=O)[C@H](CC(N)=O)NC(=O)[C@H](CCCC(N)=O)NC1=O [Compound 1, [Phe^2,Hgn^4,Orn(i-Pr)^8]VT] (H-CFI[Aad](NH2)NCP[Orn(iPr)]G-NH2; disulfide 1-6; N-terminus and C-terminus assumed) | 1.7 | + (selective hV1a receptor agonist; EC50 hOT/hV1a ratio not determined due to very low agonist efficacy (<30% compared to AVP) at the hOT receptor) | –
– | CC[C@H](C)[C@@H]1NC(=O)[C@H](Cc2ccco2)NC(=O)[C@@H](N)CSSC[C@@H](C(=O)N2CCC[C@H]2C(=O)N[C@@H](CCCNC(C)C)C(=O)NCC(N)=O)NC(=O)[C@H](CC(N)=O)NC(=O)[C@H](CC(N)=O)NC1=O [Compound 42] (H-C[Ala(2-furyl)]INNCP[Orn(iPr)]G-NH2; disulfide 1-6) | – | – | EC50 (hV1a receptor): 6.25 nM; selectivity hOT/hV1a [2]: + (key: +: selective hV1a receptor agonist; EC50 hOT/hV1a ratio not determined due to very low agonist efficacy (<30% compared to AVP) at the hOT receptor)
5.7 | CCNC(=O)C[C@@H]1NC(=O)[C@H]([C@@H](C)CC)NC(=O)[C@H](Cc2ccccc2)NC(=O)[C@@H](N)CSSC[C@@H](C(=O)N2CCC[C@H]2C(=O)N[C@@H](CCCN)C(=O)NCC(N)=O)NC(=O)[C@H](CC(N)=O)NC1=O [Compound 48] (H-CFID(NHEt)NCP[Orn]G-NH2; disulfide 1-6; N-terminus and C-terminus assumed) | – | + (selective hV1a receptor agonist; EC50 hOT/hV1a ratio not determined due to very low agonist efficacy (<30% compared to AVP) at the hOT receptor) | –
– | CC[C@H](C)[C@@H]1NC(=O)[C@H](Cc2ccccc2)NC(=O)[C@@H](N)CSSC[C@@H](C(=O)N2CCC[C@H]2C(=O)N[C@@H](CCCNCCC(C)C)C(=O)NCC(N)=O)NC(=O)[C@H](CC(N)=O)NC(=O)[C@H](CCC(N)=O)NC1=O [Compound 45] (H-CFIQNCP[X3]G-NH2; disulfide 1-6; N-terminus and C-terminus assumed) | – | – | EC50 (hV1a receptor): 1.65 nM; selectivity hOT/hV1a ([2]; EC50 ratio): 18
14.5 | CC[C@H](C)[C@@H]1NC(=O)[C@H](Cc2ccco2)NC(=O)[C@@H](N)CSSC[C@@H](C(=O)N2CCC[C@H]2C(=O)N[C@@H](CCN)C(=O)NCC(N)=O)NC(=O)[C@H](CC(N)=O)NC(=O)[C@H](CC(N)=O)NC1=O [Compound 44] (H-C[Ala(2-furyl)]INNCP[Dab]G-NH2; disulfide 1-6; N-terminus and C-terminus assumed) | – | + (selective hV1a receptor agonist; EC50 hOT/hV1a ratio not determined due to very low agonist efficacy (<30% compared to AVP) at the hOT receptor) | –
20.7 | CC[C@H](C)[C@@H]1NC(=O)[C@H](Cc2ccccc2)NC(=O)[C@@H](N)CSSC[C@@H](C(=O)N2CCC[C@H]2C(=O)N[C@@H](CCCN)C(=O)NCC(N)=O)NC(=O)[C@H](CC(N)=O)NC(=O)[C@H](CCC(=O)NCC(C)C)NC1=O [Compound 21] (H-CFIE(NHiBu)NCP[Orn]G-NH2; disulfide 1-6) | – | + (selective hV1a receptor agonist; EC50 hOT/hV1a ratio not determined due to very low agonist efficacy (<30% compared to AVP) at the hOT receptor) | –
0.54 | CC[C@H](C)[C@@H]1NC(=O)[C@H](Cc2cccs2)NC(=O)[C@@H](N)CSSC[C@@H](C(=O)N2CCC[C@H]2C(=O)N[C@@H](CCN)C(=O)NCC(N)=O)NC(=O)[C@H](CC(N)=O)NC(=O)[C@H](CCC(N)=O)NC1=O [Compound 14] (H-C[2Thi]IQNCP[Dab]G-NH2; disulfide 1-6) | – | – | selectivity hOT/hV1a ([2]; EC50 ratio): 75
– | CC[C@H](C)[C@@H]1NC(=O)[C@H](Cc2ccccc2)NC(=O)[C@@H](N)CSSC[C@@H](C(=O)N2CCC[C@H]2C(=O)N[C@@H](CCCN)C(=O)NCC(N)=O)NC(=O)[C@H](CC(N)=O)NC(=O)[C@H](CC(=O)N(C)C)NC1=O [Compound 7] (H-CFID(NMe2)NCP[Orn]G-NH2; disulfide 1-6) | – | – | EC50 (hV1a receptor): 2.84 nM; selectivity hOT/hV1a [2]: + (key: +: selective hV1a receptor agonist; EC50 hOT/hV1a ratio not determined due to very low agonist efficacy (<30% compared to AVP) at the hOT receptor)
– | [Phe2,Orn8]OT [[Phe2, Orn8]OT, reference compound] | 1.9 | – | selectivity hOT/hV1a ([2]; EC50 ratio): 60
11.9 | CC[C@H](C)[C@@H]1NC(=O)[C@H](Cc2ccccc2)NC(=O)[C@@H](N)CSSC[C@@H](C(=O)N2CCC[C@H]2C(=O)N[C@@H](CCCN)C(=O)NCC(N)=O)NC(=O)[C@H](CC(N)=O)NC(=O)[C@H](CCC(=O)NO)NC1=O [Compound 16] (H-CFIE(NHOH)NCP[Orn]G-NH2; disulfide 1-6; N-terminus and C-terminus assumed) | – | + (selective hV1a receptor agonist; EC50 hOT/hV1a ratio not determined due to very low agonist efficacy (<30% compared to AVP) at the hOT receptor) | –
11.5 | CC[C@H](C)[C@@H]1NC(=O)[C@H](Cc2cccs2)NC(=O)[C@@H](N)CSSC[C@@H](C(=O)N2CCC[C@H]2C(=O)N[C@@H](CCN)C(=O)NCC(N)=O)NC(=O)[C@H](CC(N)=O)NC(=O)[C@H](CC(N)=O)NC1=O [Compound 36] (H-C[2Thi]INNCP[Dab]G-NH2; disulfide 1-6; N-terminus and C-terminus assumed) | – | + (selective hV1a receptor agonist; EC50 hOT/hV1a ratio not determined due to very low agonist efficacy (<30% compared to AVP) at the hOT receptor) | –
7.97 | CC[C@H](C)[C@@H]1NC(=O)[C@H](Cc2ccccc2)NC(=O)[C@@H](N)CSSC[C@@H](C(=O)N2CCC[C@H]2C(=O)N[C@@H](CCCN)C(=O)NCC(N)=O)NC(=O)[C@H](CC(N)=O)NC(=O)[C@H](CC(=O)NCCO)NC1=O [Compound 23] (H-CFID(NHCH2CH2OH)NCP[Orn]G-NH2; disulfide 1-6) | – | + (selective hV1a receptor agonist; EC50 hOT/hV1a ratio not determined due to very low agonist efficacy (<30% compared to AVP) at the hOT receptor) | –
– | CC[C@H](C)[C@@H]1NC(=O)[C@H](Cc2ccncc2)NC(=O)[C@@H](N)CSSC[C@@H](C(=O)N2CCC[C@H]2C(=O)N[C@@H](CCN)C(=O)NCC(N)=O)NC(=O)[C@H](CC(N)=O)NC(=O)[C@H](CCC(N)=O)NC1=O [Compound 12] (H-C[4Pal]IQNCP[Dab]G-NH2; disulfide 1-6) | – | – | EC50 (hV1a receptor): 25 nM; selectivity hOT/hV1a [2]: + (key: +: selective hV1a receptor agonist; EC50 hOT/hV1a ratio not determined due to very low agonist efficacy (<30% compared to AVP) at the hOT receptor)
